Assay results taken from publication PMC6928678, “Simplified Head-to-Tail Cyclic Polypeptides as Biomaterial-Associated Antimicrobials with Endotoxin Neutralizing and Anti-Inflammatory Capabilities” (International Journal of Molecular Sciences, 2019).
Where a SMILES comes first, the peptide text is derived from it. [ ]: non-standard residue; d: D form. Orn = NCCC[C@H](N)C(=O)O

System: RAW264.7 cells
Assay: MTT cytotoxicity assay
Assay type: cell-based, mouse
Conditions: 0.5–128 μM, 24 h
Description: Figure 2 (A) Hemolytic activity of the engineered peptides against human red blood cells (hRBCs). The hRBCs were incubated with equal amounts of the respective peptides dissolved in PBS for 1 h at 37 °C. (B) Cytotoxicity of the engineered peptides against RAW264.7. The cells were incubated with various concentrations (0.5–128 μM) of peptides for 24 h, and the cell viability was determined by the MTT assay. Data shown are three independent experiments.
The MTT (3-[4, 5 dimethylthiozol-2-yl]-2,5-diphenyltetrazolium bromide) assay was conducted according to a previously reported MTT colorimetric method, and is used as a cell proliferation and cell viability assay. Mouse macrophage RAW264.7 cell lines stored in liquid nitrogen were recovered and cultured in a fully humidified atmosphere with 95% air and 5% CO2 at 37 °C. The cells were then diluted, added to 96-well plates at a final concentration of 2 × 10^5 cells/well, and cultured in RPMI 1640 medium at 37 °C overnight. The next day, peptides were added to the cell cultures at final concentrations of 0.5–128 μM, and untreated cell cultures serving as controls were cultured for 20–24 h in the same conditions. […] 150 μL of DMSO was added to dissolve the formazan crystals, and the OD was measured using a microplate reader (Tecan GENios F129004, Salzburg, Austria) at 570 nm. […]

CC(C)C[C@@H]1NC(=O)[C@H](CCCN)NC(=O)[C@H](C(C)C)NC(=O)[C@@H]2CCCN2C(=O)[C@@H](Cc2ccccc2)NC(=O)[C@H](CC(C)C)NC(=O)[C@H](CCCN)NC(=O)[C@H](C(C)C)NC(=O)[C@@H]2CCCN2C(=O)[C@@H](Cc2ccccc2)NC1=O [GS, gramicidin S, reference compound] (cyclo(V[Orn]L[dF]PV[Orn]L[dF]P))
toxicity towards mammalian cells (RAW264.7): highly toxic
